# Measurements as given in patent publication US10471046B2, “Method for treating, preventing, or reducing the risk of skin infection” (Melinta Subsidiary Corp., priority 2014, dated 2019).
# Read-outs that look alike come from different tables or passages of the source.
# Test system: S. aureus
# Assay: Minimum inhibitory concentrations (MICs) for S. aureus of exemplary compounds (Table 2)
# Type: cell-based
# Conditions: Staphylococcus aureus, read-out: MICs
# In short: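 MICs (μg/mL) against S. aureus come from microtiter-tray dilution susceptibility testing per NCCLS M7-A5, comparing growth with and without compound.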
# [1] = minimum inhibitory concentrations for S. aureus
SMILES,MIC [1],MIC
"CC(=O)NC[C@H]1CN(c2ccc(-c3ccc(CNS(=O)(=O)CCN4C(=O)c5ccccc5C4=O)cc3)c(F)c2)C(=O)O1 [Compound 4136, N-[3-(4′-{[2-(1,3-Dioxo-1,3-dihydro-isoindol-2-yl)-ethanesulfonylamino]-methyl}-2-fluoro-biphenyl-4-yl)-2-oxo-oxazolidin-5-(S)-ylmethyl]-acetamide]",8 µg/mL,–
"CC(=O)NC[C@H]1CN(c2ccc(-c3ccc(CNC(=O)C(N)Cc4cccnc4)cc3)c(F)c2)C(=O)O1 (stereo in doubt) [Compound 4310, N-{4′-[5-(S)-(Acetylamino-methyl)-2-oxo-oxazolidin-3-yl]-2′-fluoro-biphenyl-4-ylmethyl}-2-(R)-amino-3-pyridin-3-yl-propionamide]",4 µg/mL,–
"CC(=O)NC[C@H]1CN(c2ccc(-c3ccc(CN(Cc4nnn(C)n4)C(=O)OC(C)(C)C)cc3)c(F)c2)C(=O)O1 [Compound 4281, {4′-[5-(S)-(Acetylamino-methyl)-2-oxo-oxazolidin-3-yl]-2′-fluoro-biphenyl-4-ylmethyl}-(2-methyl-2H-tetrazol-5-ylmethyl)-carbamic acid tert-butyl ester]",2 µg/mL,–
"CC(=O)NC[C@H]1CN(c2ccc(-c3ccc(CN(Cc4c[nH]cn4)Cc4cnc[nH]4)cc3)c(F)c2)C(=O)O1 [Compound 4068, N-[3-(2-Fluoro-4′-{[(1H-imidazol-4-ylmethyl)-(3H-imidazol-4-ylmethyl)-amino]-methyl}-biphenyl-4-yl)-2-oxo-oxazolidin-5-(S)-ylmethyl]-acetamide]",128 µg/mL,–
"COc1cccc(CNc2nc(Cc3ccc(-c4ccc(N5C[C@H](CNC(C)=O)OC5=O)cc4F)cc3)cs2)c1 [Compound 1021, N-(3-{2-Fluoro-4′-[2-(3-methoxy-benzylamino)-thiazol-4-ylmethyl]-biphenyl-4-yl}-2-oxo-oxazolidin-5-(S)-ylmethyl)-acetamide]",–,1 µg/mL
"CC(=O)NC[C@H]1CN(c2ccc(-c3ccc(CNCC(=O)N4CCNCC4)cc3)c(F)c2)C(=O)O1 [Compound 4314, N-(3-{2-Fluoro-4′-[(2-oxo-2-piperazin-1-yl-ethylamino)-methyl]-biphenyl-4-yl}-2-oxo-oxazolidin-5-(S)-ylmethyl)-acetamide]",4 µg/mL,–
"CC(=O)NC[C@H]1CN(c2ccc(-c3ccc(CNCc4ccc(Br)o4)cc3)c(F)c2)C(=O)O1 [Compound 4078, N-[3-(4′-{[(5-Bromo-furan-2-ylmethyl)-amino]-methyl}-2-fluoro-biphenyl-4-yl)-2-oxo-oxazolidin-5-(S)-ylmethyl]-acetamide]",2 µg/mL,–
"CC(=O)NC[C@H]1CN(c2ccc(-c3ccc(CNC(=O)/C=C/c4cccn(C)c4=O)cc3)c(F)c2)C(=O)O1 [Compound 4194, N-{4′-[5-(S)-(Acetylamino-methyl)-2-oxo-oxazolidin-3-yl]-2′-fluoro-biphenyl-4-ylmethyl}-3-(1-methyl-2-oxo-1,2-dihydro-pyridin-3-yl)-acrylamide]",2 µg/mL,–
"CC(=O)NC[C@H]1CN(c2ccc(-c3ccc(CNCc4cccc5ccccc45)cc3)c(F)c2)C(=O)O1 [Compound 4022, N-[3-(2-Fluoro-4′-{[(naphthalen-1-ylmethyl)-amino]-methyl}-biphenyl-4-yl)-2-oxo-oxazolidin-5-(S)-ylmethyl]-acetamide]",4 µg/mL,–
"CC(=O)NC[C@H]1CN(c2ccc(-c3ccc(CNC(=O)C4CC4)cc3)c(F)c2)C(=O)O1 [Compound 4319, Cyclopropanecarboxylic acid {4′-[5-(S)-(acetylamino-methyl)-2-oxo-oxazolidin-3-yl]-2′-fluoro-biphenyl-4-ylmethyl}-amide]",16 µg/mL,–
"CC(=O)NC[C@H]1CN(c2ccc(-c3ccc(CNCC4CCNC4)cc3)c(F)c2)C(=O)O1 (mixture of isomers) [Compound 4153, N-[3-(2-Fluoro-4′-{[(pyrrolidin-3-(R/S)-ylmethyl)-amino]-methyl}-biphenyl-4-yl)-2-oxo-oxazolidin-5-(S)-ylmethyl]-acetamide]",4 µg/mL,–
"CC(=O)NC[C@H]1CN(c2ccc(-c3ccc(CN4CCC(CCO)CC4)cc3)c(F)c2)C(=O)O1 [Compound 1030, N-(3-{2-Fluoro-4′-[4-(2-hydroxy-ethyl)-piperidin-1-ylmethyl]-biphenyl-4-yl}-2-oxo-oxazolidin-5-(S)-ylmethyl)-acetamide]",2 µg/mL,–
"O=C1O[C@@H](CO)CN1c1ccc(-c2ccc(CNCc3ccncc3)cc2)c(F)c1 [Compound 4213, 3-(2-Fluoro-4′-{[(pyridin-4-ylmethyl)-amino]-methyl}-biphenyl-4-yl)-5-(R)-hydroxymethyl-oxazolidin-2-one]",4 µg/mL,–
"CC(=O)NC[C@H]1CN(c2ccc(-c3ccc([C@H](O)CN(CCC(F)(F)Cl)Cc4ccccc4)cc3)c(F)c2)C(=O)O1 [Compound 4249, N-[3-(4′-{2-[Benzyl-(3-chloro-3,3-difluoro-propyl)-amino]-1-(S)-hydroxy-ethyl}-2-fluoro-biphenyl-4-yl)-2-oxo-oxazolidin-5-(S)-ylmethyl]-acetamide]",8 µg/mL,–
"CC(=O)NC[C@H]1CN(c2ccc(-c3ccc(C(=O)NCc4ccncc4)cc3)c(F)c2)C(=O)O1 [Compound 4102, 4′-[5-(S)-(Acetylamino-methyl)-2-oxo-oxazolidin-3-yl]-2′-fluoro-biphenyl-4-carboxylic acid (pyridin-4-ylmethyl)-amide]",2 µg/mL,–
"CC(=O)NC[C@H]1CN(c2ccc(-c3ccc(CNCc4ccc(C)o4)cc3)c(F)c2)C(=O)O1 [Compound 4081, N-[3-(2-Fluoro-4′-{[(5-methyl-furan-2-ylmethyl)-amino]-methyl}-biphenyl-4-yl)-2-oxo-oxazolidin-5-(S)-ylmethyl]-acetamide]",2 µg/mL,–
"CC(=O)NC[C@H]1CN(c2ccc(-c3ccc([C@@H](NCc4ccncc4)C(N)=O)cc3)c(F)c2)C(=O)O1 [Compound 4184, 2-{4′-[5-(S)-(Acetylamino-methyl)-2-oxo-oxazolidin-3-yl]-2′-fluoro-biphenyl-4-yl}-2-(R)-[(pyridin-4-ylmethyl)-amino]-acetamide]",16 µg/mL,–
"CC(=O)NC[C@H]1CN(c2ccc(-c3ccc(CN4CCN(CC#N)CC4)c(F)c3)c(F)c2)C(=O)O1 [Compound 1005, N-{3-[4′-(4-Cyanomethyl-piperazin-1-ylmethyl)-2,3′-difluoro-biphenyl-4-yl]-2-oxo-oxazolidin-5-(S)-ylmethyl}-acetamide]",2 µg/mL,–
"CCc1ccc(CNCc2ccc(-c3ccc(N4C[C@H](CNC(C)=O)OC4=O)cc3F)cc2)o1 [Compound 4161, N-[3-(4′-{[(5-Ethyl-furan-2-ylmethyl)-amino]-methyl}-2-fluoro-biphenyl-4-yl)-2-oxo-oxazolidin-5-(S)-ylmethyl]-acetamide]",2 µg/mL,–
"CC(=O)NC[C@H]1CN(c2ccc(-c3ccc(CNCc4csc5ccccc45)cc3)c(F)c2)C(=O)O1 [Compound 4077, N-[3-(4′-{[(Benzo[b]thiophen-3-ylmethyl)-amino]-methyl}-2-fluoro-biphenyl-4-yl)-2-oxo-oxazolidin-5-(S)-ylmethyl]-acetamide]",16 µg/mL,–

# More lines, main results first:
MIC [1],SMILES,MIC
2 µg/mL,"CC(=O)NC[C@H]1CN(c2ccc(-c3ccc(CNCc4ccc(CO)o4)cc3)c(F)c2)C(=O)O1 [Compound 4075, N-[3-(2-Fluoro-4′-{[(5-hydroxymethyl-furan-2-ylmethyl)-amino]-methyl}-biphenyl-4-yl)-2-oxo-oxazolidin-5-(S)-ylmethyl]-acetamide]",–
0.5 µg/mL,"CCOC(=O)c1cnn(Cc2ccc(-c3ccc(N4C[C@H](CNC(C)=O)OC4=O)cc3F)cc2)c1 [Compound 1049, 1-{4′-[5-(S)-(Acetylamino-methyl)-2-oxo-oxazolidin-3-yl]-2′-fluoro-biphenyl-4-ylmethyl}-1H-pyrazole-4-carboxylic acid ethyl ester]",–
1 µg/mL,"CC(=O)NC[C@H]1CN(c2ccc(-c3ccc(CNCc4csc(-c5ccccc5)n4)cc3)c(F)c2)C(=O)O1 [Compound 4122, N-[3-(2-Fluoro-4′-{[(2-phenyl-thiazol-4-ylmethyl)-amino]-methyl}-biphenyl-4-yl)-2-oxo-oxazolidin-5-(S)-ylmethyl]-acetamide]",–
2 µg/mL,"CC(=O)NC[C@H]1CN(c2ccc(-c3ccc(CNCc4ccncc4)c(F)c3F)c(F)c2)C(=O)O1 [Compound 4089, N-[2-Oxo-3-(2,2′,3′-trifluoro-4′-{[(pyridin-4-ylmethyl)-amino]-methyl}-biphenyl-4-yl)-oxazolidin-5-(S)-ylmethyl]-acetamide]",–
0.25 µg/mL,"CC(=O)NC[C@H]1CN(c2ccc(-c3ccc(CNc4ccon4)cc3)c(F)c2)C(=O)O1 [Compound 2050, N-{3-[2-Fluoro-4′-(isoxazol-3-ylaminomethyl)-biphenyl-4-yl]-2-oxo-oxazolidin-5-(S)-ylmethyl}-acetamide]",–
1 µg/mL,"CC(=O)NC[C@H]1CN(c2ccc(-c3ccc(Cn4cncc4C)cc3)c(F)c2)C(=O)O1 [Compound 1067, N-{3-[2-Fluoro-4′-(5-methyl-imidazol-1-ylmethyl)-biphenyl-4-yl]-2-oxo-oxazolidin-5-(S)-ylmethyl}-acetamide]",–
0.5 µg/mL,"CC(=O)NC[C@H]1CN(c2ccc(-c3ccc(CNCc4ncon4)cc3)c(F)c2)C(=O)O1 [Compound 4233, N-[3-(2-Fluoro-4′-{[([1,2,4]oxadiazol-3-ylmethyl)-amino]-methyl}-biphenyl-4-yl)-2-oxo-oxazolidin-5-(S)-ylmethyl]-acetamide]",–
0.5 µg/mL,"CC(=O)NC[C@H]1CN(c2ccc(-c3ccc(CN4CC(CF)OC4=O)cc3)c(F)c2)C(=O)O1 (mixture of isomers) [Compound 1095, N-{3-[2-Fluoro-4′-(5-fluoromethyl-2-oxo-oxazolidin-3-(R/S)ylmethyl)-biphenyl-4-yl]-2-oxo-oxazolidin-5-(S)-ylmethyl}-acetamide]",–
1 µg/mL,"CC(=O)NC[C@H]1CN(c2ccc(-c3ccc(COCc4ccccn4)cc3)c(F)c2)C(=O)O1 [Compound 4192, N-{3-[2-Fluoro-4′-(pyridin-2-ylmethoxymethyl)-biphenyl-4-yl]-2-oxo-oxazolidin-5-(S)-ylmethyl}-acetamide]",–
1 µg/mL,"CC(=O)NC[C@H]1CN(c2ccc(-c3ccc(CNN4CCN(C)CC4)cc3)c(F)c2)C(=O)O1 [Compound 2057, N-(3-{2-Fluoro-4′-[(4-methyl-piperazin-1-ylamino)-methyl]-biphenyl-4-yl}-2-oxo-oxazolidin-5-(S)-ylmethyl)-acetamide]",–
